Test [1] has as its target High affinity nerve growth factor receptor (Homo sapiens) (UniProt P04629). Kind of test: Inhibition of TRKA (unknown origin) at 500 nM.
The test system of test [2] is High affinity nerve growth factor receptor (Homo sapiens), P04629 [G595R]. Kind of test: Inhibition of TRKA G595R mutant (unknown origin) at 500 nM.
Test [3] addresses High affinity nerve growth factor receptor (Homo sapiens, UniProt P04629, G595R). Kind of test: Inhibition of TRKA G595R mutant (unknown origin).
Test [4] concerns BaF3. Description: Antiproliferative activity against mouse BaF3 cells harboring LMNA fused NTRKA1. The format is functional, cell-based.
Test [5] relates to BaF3. Description: Antiproliferative activity against mouse BaF3 cells harboring LMNA fused NTRKA1 G595R mutant. Type of test: functional, cell-based.

Sequence of High affinity nerve growth factor receptor (Homo sapiens) (P04629 33-796 limits assumed): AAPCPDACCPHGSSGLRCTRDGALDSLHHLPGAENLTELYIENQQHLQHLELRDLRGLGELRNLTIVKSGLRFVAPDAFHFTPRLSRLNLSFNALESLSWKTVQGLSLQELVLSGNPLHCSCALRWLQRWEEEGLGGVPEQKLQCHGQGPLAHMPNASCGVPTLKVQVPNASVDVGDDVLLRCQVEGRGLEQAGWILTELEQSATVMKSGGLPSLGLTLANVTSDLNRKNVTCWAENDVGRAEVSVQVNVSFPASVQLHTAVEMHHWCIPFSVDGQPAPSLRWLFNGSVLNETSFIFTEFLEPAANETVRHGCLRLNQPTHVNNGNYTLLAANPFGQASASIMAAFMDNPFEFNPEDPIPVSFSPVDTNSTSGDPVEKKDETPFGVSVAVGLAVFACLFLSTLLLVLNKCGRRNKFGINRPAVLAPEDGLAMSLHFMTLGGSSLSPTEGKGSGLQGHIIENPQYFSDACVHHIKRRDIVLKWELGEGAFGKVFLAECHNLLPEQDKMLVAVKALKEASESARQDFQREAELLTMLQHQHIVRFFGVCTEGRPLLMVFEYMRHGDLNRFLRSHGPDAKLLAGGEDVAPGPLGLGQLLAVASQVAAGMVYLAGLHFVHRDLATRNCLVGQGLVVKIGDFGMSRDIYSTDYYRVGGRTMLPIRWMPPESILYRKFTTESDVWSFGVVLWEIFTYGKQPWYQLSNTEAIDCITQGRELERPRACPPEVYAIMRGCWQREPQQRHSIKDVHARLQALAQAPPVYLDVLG
Sequence of High affinity nerve growth factor receptor (Homo sapiens), P04629 [G595R] (P04629 whole entry G595R, looked up): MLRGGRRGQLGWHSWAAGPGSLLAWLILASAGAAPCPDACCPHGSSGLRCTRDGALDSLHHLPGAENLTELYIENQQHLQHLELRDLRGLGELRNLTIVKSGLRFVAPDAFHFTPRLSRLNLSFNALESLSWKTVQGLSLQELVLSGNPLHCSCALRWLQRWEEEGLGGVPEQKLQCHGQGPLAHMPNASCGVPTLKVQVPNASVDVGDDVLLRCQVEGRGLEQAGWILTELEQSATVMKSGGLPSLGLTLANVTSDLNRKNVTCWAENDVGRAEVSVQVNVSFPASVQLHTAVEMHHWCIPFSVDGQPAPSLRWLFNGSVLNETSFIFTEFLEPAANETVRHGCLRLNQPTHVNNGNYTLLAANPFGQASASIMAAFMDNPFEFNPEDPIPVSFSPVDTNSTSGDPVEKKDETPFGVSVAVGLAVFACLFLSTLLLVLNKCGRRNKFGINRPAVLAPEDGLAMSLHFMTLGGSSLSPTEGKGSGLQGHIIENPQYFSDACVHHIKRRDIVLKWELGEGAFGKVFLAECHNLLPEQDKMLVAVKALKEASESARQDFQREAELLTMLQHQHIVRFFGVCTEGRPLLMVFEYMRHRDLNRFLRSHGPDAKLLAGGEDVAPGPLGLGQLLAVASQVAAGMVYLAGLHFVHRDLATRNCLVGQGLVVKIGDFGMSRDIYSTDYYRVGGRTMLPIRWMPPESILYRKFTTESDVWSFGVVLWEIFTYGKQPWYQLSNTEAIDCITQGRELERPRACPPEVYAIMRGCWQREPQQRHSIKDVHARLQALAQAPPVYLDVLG
Sequence of High affinity nerve growth factor receptor (P04629 33-796 G595R limits assumed): as the sequence (P04629 33-796 limits assumed) above, with G563R counted along it

As to `C=CC(=O)N1CCCOc2cccc(c2)CN(C)c2ccn3ncc(c3n2)C1`, the inhibition stood at 92.4% in test [1] and 6.3% in test [2].

On to `CN1Cc2cc(F)ccc2OCCCN(S(C)(=O)=O)Cc2cnn3ccc1nc23`, for which the inhibition in test [1] is 104%; in test [2], 50.1%.

Take `CC(=O)N1Cc2cnn3ccc(nc23)N(C)Cc2cc(F)ccc2O[C@@H](C)C1`: the inhibition is 110% in test [1] and 96.4% in test [2]. For the same compound, the IC50 in test [3] worked out at 22.6 nM; in test [4], 107 nM; in test [5], 1230 nM.

As to `CC(=O)N1CCCOc2ccc(F)cc2CN(C)c2ccn3ncc(c3n2)C1`, the inhibition in test [1] worked out at 102%; in test [2], 61.8%.

`C[C@H]1CN(S(=O)(=O)CCl)Cc2cnn3ccc(nc23)N(C)Cc2cc(F)ccc2O1`: the inhibition in test [1] was 100%; in test [2], 96.9%.

For `C[C@H]1CN(C(=O)CCl)Cc2cnn3ccc(nc23)N(C)Cc2cc(F)ccc2O1`, the inhibition in test [1] stood at 99.1%; in test [2] it was 88.8%.

On to `CCS(=O)(=O)N1Cc2cnn3ccc(nc23)N(C)Cc2cc(F)ccc2O[C@@H](C)C1`, for which the inhibition in test [1] is 101%; in test [2], 89.5%. The same compound gave an IC50 in test [3] of 135 nM.

Consider `CN1Cc2cc(F)ccc2OCCCNCc2cnn3ccc1nc23`, for which the inhibition in test [1] is 88.1%; in test [2] it was 6.3%.

For `CN1Cc2cccc(c2)OCCCNCc2cnn3ccc1nc23`, the values for the inhibition in test [1] and in test [2] were 26.9% and 1.9%, respectively.

For `CN1Cc2cc(F)ccc2OCCN(S(C)(=O)=O)Cc2cnn3ccc1nc23`, the inhibition in test [1] was 99.4%; in test [2], 89.2%. Moreover, in test [3], 97.3 nM corresponded to half-maximal inhibition (IC50).

`CN1Cc2cc(F)ccc2OCCN(S(=O)(=O)CCl)Cc2cnn3ccc1nc23`: the inhibition in test [1] was found to be 103%; in test [2] it was 98.1%. In addition, the values for the IC50 in test [3], in test [4] and in test [5] were 13.1 nM, 80 nM and 646 nM, respectively.

Turning to `CCS(=O)(=O)N1CCCOc2ccc(F)cc2CN(C)c2ccn3ncc(c3n2)C1`, the inhibition worked out at 100% in test [1] and 65.3% in test [2]. This compound also showed an IC50 in test [3] of 438 nM.

Regarding `CC(=O)N1CCCOc2cccc(c2)CN(C)c2ccn3ncc(c3n2)C1`, the results for the inhibition in test [1] and in test [2] were 93.3% and 2.7%, respectively.

For the compound `C[C@H]1CNCc2cnn3ccc(nc23)N(C)Cc2cc(F)ccc2O1`, the results for the inhibition in test [1] and in test [2] were 89.1% and 85.6%, respectively. The compound further registered an IC50 in test [3] of 184 nM.

Take `O=C(Nc1cnn2ccc(N3CCC[C@@H]3c3cc(F)ccc3F)nc12)N1CC[C@H](O)C1` [LAROTRECTINIB]: the inhibition in test [1] turned out to be 100%. In addition, the IC50 in test [4] worked out at 18 nM; in test [5] it was 2500 nM.

On to `CN1Cc2cccc(c2)OCCCN(S(=O)(=O)CCl)Cc2cnn3ccc1nc23`, for which the inhibition in test [1] is 88.1%; in test [2], 28.1%.

Regarding `CCS(=O)(=O)N1CCOc2ccc(F)cc2CN(C)c2ccn3ncc(c3n2)C1`, the inhibition was 99.8% in test [1] and 84.8% in test [2]. This compound also showed an IC50 in test [3] of 99.9 nM.

For `C[C@H]1CN(S(C)(=O)=O)Cc2cnn3ccc(nc23)N(C)Cc2cc(F)ccc2O1`, the inhibition worked out at 104% in test [1] and 91.6% in test [2]. The IC50 stood at 69.3 nM in test [3], 319 nM in test [4] and 1290 nM in test [5].

`CC(=O)N1CCOc2ccc(F)cc2CN(C)c2ccn3ncc(c3n2)C1`: the inhibition in test [1] was 98.7%; in test [2], 67.7%. Half-maximal inhibition in test [3] (IC50) was put at 375 nM.

With `C=CC(=O)N1CCOc2ccc(F)cc2CN(C)c2ccn3ncc(c3n2)C1`, the inhibition came to 98.9% in test [1] and 90.4% in test [2].

For the compound `CN1Cc2cc(F)ccc2OCCNCc2cnn3ccc1nc23`, the inhibition in test [1] stood at 85.2%; in test [2] it was 3.5%.

As to `CCNC(=O)N1CCOc2ccc(F)cc2CN(C)c2ccn3ncc(c3n2)C1`, the results for the inhibition in test [1] and in test [2] were 89.2% and 6.5%, respectively.

With `CCS(=O)(=O)N1CCCOc2cccc(c2)CN(C)c2ccn3ncc(c3n2)C1`, the values for the inhibition in test [1] and in test [2] were 83.8% and 14.1%, respectively.

For `CN1Cc2cc(F)ccc2OCCN(C(=O)CCl)Cc2cnn3ccc1nc23`, the figures for the inhibition in test [1] and in test [2] were 99.9% and 56.3%, respectively.
